According to patent publication US20180194762A1 (Pharmacyclics LLC, priority 2017, published 2018):
Read-outs that look alike come from different tables or passages of the source.

Legend:
Type in all cases: biochemical
TEC = target: T1, TEC (Homo sapiens, UniProt P42680); experiment: Inhibition of a panel of kinases (in vitro HotSpot kinase assay, 33P-ATP, 1 μM ATP); details: for IC50: HotSpot kinase assay, 1 μM ATP; for TEC/Btk: ratio of TEC IC50 to Btk IC50 (selectivity)
T1 sequence (P42680 1-631): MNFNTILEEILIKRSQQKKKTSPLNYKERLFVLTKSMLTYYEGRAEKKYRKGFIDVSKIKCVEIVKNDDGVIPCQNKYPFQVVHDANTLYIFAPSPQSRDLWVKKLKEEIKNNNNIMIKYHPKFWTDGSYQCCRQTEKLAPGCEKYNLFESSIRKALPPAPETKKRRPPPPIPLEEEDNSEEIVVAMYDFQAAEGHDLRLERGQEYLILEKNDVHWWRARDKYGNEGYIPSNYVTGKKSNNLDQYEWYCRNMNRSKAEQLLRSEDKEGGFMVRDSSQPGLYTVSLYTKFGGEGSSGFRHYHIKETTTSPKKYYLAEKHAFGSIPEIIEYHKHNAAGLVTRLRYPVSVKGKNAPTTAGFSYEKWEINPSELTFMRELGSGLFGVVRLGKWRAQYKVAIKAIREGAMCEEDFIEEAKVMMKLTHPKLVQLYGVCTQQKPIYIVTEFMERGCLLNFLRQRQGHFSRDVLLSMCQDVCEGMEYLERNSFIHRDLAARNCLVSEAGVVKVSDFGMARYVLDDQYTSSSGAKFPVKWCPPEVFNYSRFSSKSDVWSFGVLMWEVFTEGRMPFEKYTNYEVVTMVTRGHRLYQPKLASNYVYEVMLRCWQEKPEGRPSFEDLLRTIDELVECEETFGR
Method in brief: (§1)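 Degree of kinase inhibition is determined in vitro using isolated enzymes, a matched substrate and radiolabelled ATP (1 μM).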

Btk = target: T2, Btk (Homo sapiens, UniProt Q06187); experiment: Btk in vitro inhibitory activity (one of Method A TR-FRET, Method B electrophoretic mobility shift, Method C radiometric filter binding)
T2 construct: purified from insect cells as a full-length construct containing a N-terminal 6X-His tag; His6 (N); made in house; host or cells: insect cells (Method C)
T2 sequence (Q06187 whole entry): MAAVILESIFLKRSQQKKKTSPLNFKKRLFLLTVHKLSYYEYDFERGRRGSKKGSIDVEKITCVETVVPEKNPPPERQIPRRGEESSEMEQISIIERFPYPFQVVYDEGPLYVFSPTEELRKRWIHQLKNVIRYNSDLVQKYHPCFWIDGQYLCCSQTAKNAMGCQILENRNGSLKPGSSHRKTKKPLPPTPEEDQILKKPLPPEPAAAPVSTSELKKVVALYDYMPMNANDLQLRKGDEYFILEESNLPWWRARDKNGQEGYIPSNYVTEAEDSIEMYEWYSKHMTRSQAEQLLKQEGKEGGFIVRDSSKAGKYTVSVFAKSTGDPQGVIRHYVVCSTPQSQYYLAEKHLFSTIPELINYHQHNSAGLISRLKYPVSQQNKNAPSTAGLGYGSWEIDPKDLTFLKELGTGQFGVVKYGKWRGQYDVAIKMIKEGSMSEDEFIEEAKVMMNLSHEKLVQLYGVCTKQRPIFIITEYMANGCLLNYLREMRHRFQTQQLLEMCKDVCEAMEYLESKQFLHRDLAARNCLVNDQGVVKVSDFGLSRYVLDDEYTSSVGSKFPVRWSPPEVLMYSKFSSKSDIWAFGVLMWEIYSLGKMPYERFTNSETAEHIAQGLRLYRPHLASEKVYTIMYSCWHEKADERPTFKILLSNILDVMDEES
Method in brief: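 Method A: TR-FRET with 0.5 nM Btk at [ATP]=Km, EDTA-quenched, 665/615 nm ratio; Ki(app) converted to IC50. Method B: 1 nM full-length His6 human BTK, 1 μM FAM peptide, pH 7.5, mobility-shift product/sum ratio, 12-point 4-parameter fit. Method C: radiometric filter binding, 8 nM His-tagged BTK, 0.2 mg/mL poly-Glu-Tyr.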

panel of kinases = target: T3, panel of kinases (Homo sapiens, UniProt P51813); experiment: Inhibition of a panel of kinases (in vitro HotSpot kinase assay, 33P-ATP, 1 μM ATP), other kinases; details: BMX wild-type, read-out: BMX-WT IC50
T3 sequence (P51813 1-675): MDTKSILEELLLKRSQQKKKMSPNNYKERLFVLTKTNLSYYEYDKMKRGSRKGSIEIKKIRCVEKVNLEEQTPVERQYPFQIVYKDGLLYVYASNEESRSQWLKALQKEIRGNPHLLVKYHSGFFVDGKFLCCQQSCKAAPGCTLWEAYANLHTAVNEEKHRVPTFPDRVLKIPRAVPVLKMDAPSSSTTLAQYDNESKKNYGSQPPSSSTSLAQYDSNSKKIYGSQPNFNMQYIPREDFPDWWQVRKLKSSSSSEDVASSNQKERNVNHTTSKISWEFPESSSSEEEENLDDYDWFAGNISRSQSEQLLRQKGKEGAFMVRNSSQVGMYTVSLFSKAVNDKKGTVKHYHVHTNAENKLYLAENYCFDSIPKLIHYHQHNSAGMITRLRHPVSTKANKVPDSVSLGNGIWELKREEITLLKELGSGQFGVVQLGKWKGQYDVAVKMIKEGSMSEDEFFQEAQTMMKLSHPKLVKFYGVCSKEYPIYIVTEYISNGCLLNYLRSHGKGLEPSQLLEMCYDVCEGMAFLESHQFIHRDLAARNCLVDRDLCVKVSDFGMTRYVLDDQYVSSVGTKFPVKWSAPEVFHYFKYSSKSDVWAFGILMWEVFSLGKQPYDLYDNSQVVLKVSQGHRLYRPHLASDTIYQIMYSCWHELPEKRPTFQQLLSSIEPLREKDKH
Method in brief: as §1

[1] = method is one of A, B or C, not stated which, read-out: IC50 values against Btk
[2] = wild-type Btk, read-out: Btk-WT IC50

SMILES	IC50 (TEC) [nM]	TEC/Btk (TEC)	IC50 (Btk; [1]) [nM]	IC50 (Btk; [2]) [nM]	IC50 (panel of kinases) [nM]
C[C@H]1CC[C@@H](Nc2n[nH]c3nccc(-c4ccc(CNC(=O)c5noc(C(C)(C)C)n5)c(F)c4)c23)CN1C(=O)CC#N [Example 140, 5-tert-butyl-N-{[4-(3-{[(3R,6S)-1-(2-cyanoacetyl)-6-methylpiperidin-3-yl]amino}-1H-pyrazolo[3,4-b]pyridin-4-yl)-2-fluorophenyl]methyl}-1,2,4-oxadiazole-3-carboxamide]	855	323	< 10	2.65	1770
C[C@H]1CC[C@@H](Nc2n[nH]c3nccc(-c4ccc(CNC(=O)c5noc(C(C)(C)C)n5)c(F)c4)c23)CN1CC#N [Example 143, 5-tert-butyl-N-{[4-(3-{[(3R,6S)-1-(cyanomethyl)-6-methylpiperidin-3-yl]amino}-1H-pyrazolo[3,4-b]pyridin-4-yl)-2-fluorophenyl]methyl}-1,2,4-oxadiazole-3-carboxamide]	2230	315	< 10	7.08	2930
C[C@H]1CC[C@@H](Nc2n[nH]c3nccc(-c4ccc(CNC(=O)c5cc(C(C)(C)C)on5)c(F)c4)c23)CN1 [Example 144, 5-tert-butyl-N-{[2-fluoro-4-(3-{[(3R,6S)-6-methylpiperidin-3-yl]amino}-1H-pyrazolo[3,4-b]pyridin-4-yl)phenyl]methyl}-1,2-oxazole-3-carboxamide]	1320	6		225	912
C[C@H]1CC[C@@H](Nc2n[nH]c3nccc(-c4ccc(CNC(=O)c5cc(C(C)(C)C)on5)c(F)c4)c23)CN1C(=O)N(C)C [Example 145, (2S,5R)-5-{[4-(4-{[(5-tert-butyl-1,2-oxazol-3-yl)formamido]methyl}-3-fluorophenyl)-1H-pyrazolo[3,4-b]pyridin-3-yl]amino}-N,N,2-trimethylpiperidine-1-carboxamide]	1060	549	< 10	1.93	1040
C=CC(=O)N1C[C@H](Nc2n[nH]c3nccc(-c4ccc(CNC(=O)c5cc(C(C)(C)C)on5)c(F)c4)c23)CC[C@@H]1C [Example 146, 5-tert-butyl-N-{[2-fluoro-4-(3-{[(3R,6S)-6-methyl-1-(prop-2-enoyl)piperidin-3-yl]amino}-1H-pyrazolo[3,4-b]pyridin-4-yl)phenyl]methyl}-1,2-oxazole-3-carboxamide]	47	234	< 10	0.202	21
C[C@H]1CC[C@@H](Nc2n[nH]c3nccc(-c4ccc(CNC(=O)c5nc(C(C)(C)C)no5)c(F)c4)c23)CN1 [Example 147, 3-tert-butyl-N-{[2-fluoro-4-(3-{[(3R,6S)-6-methylpiperidin-3-yl]amino}-1H-pyrazolo[3,4-b]pyridin-4-yl)phenyl]methyl}-1,2,4-oxadiazole-5-carboxamide]	> 10000	>100		84.4	5530
C=CC(=O)N1C[C@H](Nc2n[nH]c3nccc(-c4ccc(CNC(=O)c5nc(C(C)(C)C)no5)c(F)c4)c23)CC[C@@H]1C [Example 148, 3-tert-butyl-N-{[2-fluoro-4-(3-{[(3R,6S)-6-methyl-1-(prop-2-enoyl)piperidin-3-yl]amino}-1H-pyrazolo[3,4-b]pyridin-4-yl)phenyl]methyl}-1,2,4-oxadiazole-5-carboxamide]	28	305	< 10	0.0924	12
CC1(C)Cc2cc(C(=O)NCc3ccc(-c4ccnc5[nH]nc(N[C@@H]6CCNC6)c45)cc3F)[nH]c2C1 [Example 149, N-{[2-fluoro-4-(3-{[(3R)-pyrrolidin-3-yl]amino}-1H-pyrazolo[3,4-b]pyridin-4-yl)phenyl]methyl}-5,5-dimethyl-1H,4H,5H,6H-cyclopenta[b]pyrrole-2-carboxamide]	> 10000	>100		739	> 10000
CC(C)(C)c1ccc(C(=O)Nc2cccc(-c3ccnc4[nH]nc(N[C@@H]5CCNC5)c34)c2CO)cc1 [Example 150, 4-tert-butyl-N-[2-(hydroxymethyl)-3-(3-{[(3R)-pyrrolidin-3-yl]amino}-1H-pyrazolo[3,4-b]pyridin-4-yl)phenyl]benzamide]	> 10000	>100		35.3	> 10000
CC(C)(C)c1nc(C(=O)NCc2ccc(-c3ccnc4[nH]nc(N[C@H]5CC[C@H](N)CC5)c34)cc2F)no1 [Example 151, 5-tert-butyl-N-{[2-fluoro-4-(3-{[(1r,4r)-4-aminocyclohexyl]amino}-1H-pyrazolo[3,4-b]pyridin-4-yl)phenyl]methyl}-1,2,4-oxadiazole-3-carboxamide]	8270			21.7	8120
C=CC(=O)N[C@H]1CC[C@H](Nc2n[nH]c3nccc(-c4ccc(CNC(=O)c5noc(C(C)(C)C)n5)c(F)c4)c23)CC1 [Example 152, 5-tert-butyl-N-{[2-fluoro-4-(3-{[(1r,4r)-4-(prop-2-enamido)cyclohexyl]amino}-1H-pyrazolo[3,4-b]pyridin-4-yl)phenyl]methyl}-1,2,4-oxadiazole-3-carboxamide]	2680		< 10	3.41	496
CC(C)(C)c1nc(C(=O)NCc2ccc(-c3ccnc4[nH]nc(N[C@H]5CC[C@@H](N)CC5)c34)cc2F)no1 [Example 153, 5-tert-butyl-N-{[2-fluoro-4-(3-{[(1s,4s)-4-aminocyclohexyl]amino}-1H-pyrazolo[3,4-b]pyridin-4-yl)phenyl]methyl}-1,2,4-oxadiazole-3-carboxamide]	3200	169		18.9	2000
C=CC(=O)N[C@H]1CC[C@@H](Nc2n[nH]c3nccc(-c4ccc(CNC(=O)c5noc(C(C)(C)C)n5)c(F)c4)c23)CC1 [Example 154, 5-tert-butyl-N-{[2-fluoro-4-(3-{[(1s,4s)-4-(prop-2-enamido)cyclohexyl]amino}-1H-pyrazolo[3,4-b]pyridin-4-yl)phenyl]methyl}-1,2,4-oxadiazole-3-carboxamide]	409	1726	< 10	0.237	229
CC(C)(C)c1nc(NC(=O)Nc2ccc(-c3ccnc4[nH]nc(N[C@@H]5CCNC5)c34)cc2F)no1 [Example 155, 3-(5-tert-butyl-1,2,4-oxadiazol-3-yl)-1-[2-fluoro-4-(3-{[(3R)-pyrrolidin-3-yl]amino}-1H-pyrazolo[3,4-b]pyridin-4-yl)phenyl]urea]	> 10000			> 10000	> 10000
C=CC(=O)N1CC[C@@H](Nc2n[nH]c3nccc(-c4ccc(NC(=O)Nc5noc(C(C)(C)C)n5)c(F)c4)c23)C1 [Example 156, 3-(5-tert-butyl-1,2,4-oxadiazol-3-yl)-1-[2-fluoro-4-(3-{[(3R)-1-(prop-2-enoyl)pyrrolidin-3-yl]amino}-1H-pyrazolo[3,4-b]pyridin-4-yl)phenyl]urea]	407	1		639	111
